The target of series [1] is 5-hydroxytryptamine 1A (5-HT1A) receptors (Homo sapiens (Human), UniProt P08908). The experiment in a line: 5-HT1A receptor Gαi1 BRET (G protein trimer dissociation). Type of series: cell-based. The note with it: relative to endogenous ligand 5-hydroxytryptamine.
Series [2] has as its target T1, dopamine D2 receptors (Homo sapiens (Human), UniProt P14416). The series is described as follows: Dopamine D2 receptor radioligand competition binding assay ([3H]-Methylspiperone). Particulars: [3H]-Methylspiperone 0.3 to 0.5 nM, 293T membranes. Here is the method:
The affinity of the compounds of the present disclosure for dopamine D2 receptors was determined by a radioligand competition binding assay.
In the first step, a cell membrane component containing specific dopamine D2 receptors was prepared. A 10 cm culture dish was used for transfection with […] of dopamine D2 receptors and 40 μL of polyethylenimine (PEI hereafter). […] A vacuum pump was used to suck off the culture medium, 3 mL of lysis buffer was added to each culture dish, and the cells were placed in a 4° C. cold room for 10 minutes. After the cells were detached, the cells were transferred to a 15 mL centrifuge tube and centrifuged at 1500 rpm for 5 minutes at 4° C., and the supernatant was discarded. The cell pellet was transferred to a tissue homogenizer, and 3 mL of lysis buffer was added and fully ground until the cells were broken. Then, cell suspension was equally aliquoted into several EP tubes, centrifuged at 12000 rpm for 5 minutes at 4° C., and the supernatant was discarded. The precipitate was the cell membrane component containing the dopamine D2 receptors.
First, a standard binding buffer was added to the cell membrane component containing the dopamine D2 receptors, and the cell membrane was disrupted and resuspended with an electric tissue homogenizer. 30 μL of membrane protein suspension was added to each well of a 96-well plate. Then, 30 μL of different drugs were added to the 96-well plate sequentially from bottom to top to ensure that the final drug concentrations were 10^−5 M, 10^−6 M, 10^−7 M, 10^−8 M, 10^−9 M, and 0 M, with two replicates per treatment. Next, 30 μL of [3H]-Methylspiperone was added to each well of the 96-well plate. The plate was incubated at room temperature in the dark for 2 hours. Detection was conducted. The machine readout value reflected the amount of [3H]-Methylspiperone bound on the membrane, and after further data processing, the affinity Ki values of different compounds for the dopamine D2 receptors were obtained.

Series [3] deals with T1, dopamine D2 receptors. The series is described as follows: Dopamine D2 receptor Gαi1 BRET (G protein trimer dissociation). It is filed as cell-based. Particulars: for Emax: relative to endogenous ligand dopamine, read-out: Gαi1 BRET Emax % ± SEM. Here is the method:
(§1) To examine the downstream G-protein signaling pathway mediated by dopamine D2 receptors, on the first day, a 6 cm culture dish was used for transfection with 1 μg of dopamine D2 receptors, 1 μg of Gαi1 containing C-terminal seaweed luciferase (Gαi1-Rluc), 1 μg of Gβ3, 1 μg of Gγ9 containing C-terminal green fluorescent protein (Gγ9-GFP) mixed with 16 μL of PEI. At the same time, in order to examine the downstream β-arrestin2 signaling pathway mediated by dopamine D2 receptors, on the first day, a 6 cm culture dish was used for transfection with […] of dopamine D2 receptors containing C-terminal seaweed luciferase (D2-Rluc), […] of G protein-coupled receptor kinase 2 (GRK2), […] of β-arrestin2 containing N-terminal green fluorescent protein (GFP2-ARRB2) mixed with 14 μL of PEI. The next day, the confluent cells of a 6 cm culture dish were digested and reseeded into a 96-well plate with 100 μL of culture medium added to each well. On the third day, the drugs were added for test. The 96-well plate was taken out from the cell incubator to decant the culture medium, 40 μL of the substrate coelenterazine 400a (final concentration of 5 μM) was added to each well, and then 20 μL of different drugs were added sequentially from left to right to ensure that the final concentration of the drug decreased gradually from bottom to top, with two replicates per treatment. Finally, the prepared samples were loaded on machine for test. The machine readout value reflected the recruitment of β-arrestin2 to the membrane or the dissociation of G protein trimer. The former indicated the degree of activation of the β-arrestin2 signaling pathway downstream of the dopamine D2 receptors, and the latter indicated the degree of activation of the G protein signaling pathway downstream of the dopamine D2 receptors.

Series [4] concerns the target T1, dopamine D2 receptors. The experiment in a line: Dopamine D2 receptor β-arrestin2 BRET (recruitment). Particulars: for Emax: relative to endogenous ligand dopamine, read-out: β-arrestin2 BRET Emax % ± SEM. Type of series: cell-based. As for the experimental part: as §1
In general terms: Bioluminescence resonance energy transfer reports proximity on the nanometre scale.

Series [5] in a line: Pharmacokinetics in SD rats, single dose intragastric and intravenous. Type of series: in vivo. Particulars: male, rat, plasma; for AUC(0-t): read-out: Area under the drug-time curve AUC0-t; for half-life: read-out: Elimination half-life t1/2 (converted); for MRT: read-out: Mean residence time MRT; for Cmax: read-out: Peak drug concentration Cmax. Here is the method: Testing of pharmacokinetic properties of compounds administered in a single dose to SD rats by intragastric administration and intravenous injection
After the compound was administered in a single dose to male SD rats, blood samples were collected at different time points. The concentration of the compound in the plasma of the rats was determined by LC-MS/MS and the relevant pharmacokinetic parameters were calculated to investigate the pharmacokinetics of the compound in rats.
Male SD rats were provided by Suzhou JOINN Laboratories Co., Ltd. SD rats were fasted with free access to water for 12 to 14 hours one day before administration, and were fed 4 hours after administration.
For each compound, the […] were divided into two groups: intravenous injection and intragastric administration, with 3 rats in each group. For both intravenous injection (administered at a dose of 3 mg/kg and a concentration of 0.6 mL/kg) and intragastric administration (administered at a dose of 10 mg/kg and a concentration of 1 mL/kg), 5% DMSO+5% Solutol+90% saline was used as the vehicle.
Sample collection: 0.10 mL of blood was collected from the orbit of each animal in IV/PO groups each time at 5 minutes, 15 minutes, 30 minutes, 1 hour, 2 hours, 4 hours, 6 hours, 8 hours, and 24 hours after administration of the test compound, and anticoagulated with EDTA-K2. Blood samples were placed on ice after collection, and plasma was separated by centrifugation within 30 minutes (centrifugation conditions: 5000 rpm, 10 minutes, 4° C.). The collected plasma was stored at −80° C. before analysis.
Data processing: The data acquisition and control system software was Analyst 1.5.1 software (Applied Biosystem). The peak integration method of chromatographic samples was automatic integration; the ratio of the peak area of the sample to the peak area of the internal standard was used as an index for regression with the concentration of the sample. […] Pharmacokinetic parameters were analyzed with a non-compartmental model using WinNonlin Professional v6.3 (Pharsight, USA). Cmax was the measured maximum plasma concentration, the area under the plasma concentration-time curve AUC(0→t) was calculated by the trapezoidal method, and tmax was the time to peak plasma concentration after administration. Experimental data were presented as “Mean±SD” (n≥3) or “Mean” (n=2).

A short description of series [6]: Brain permeability test, single intraperitoneal dose in C57 male mice. It is filed as in vivo. The note with it: intraperitoneal 5 mg/kg. As for the experimental part: Using the same method as that in the pharmacokinetic experiment, 0.030 mL of blood was collected from the orbit of each animal at 0.5 hours, 2.0 hours, and 4.0 hours, and anticoagulated with EDTA-K2. Blood samples were placed on ice after collection, and plasma was separated by centrifugation within 30 minutes (centrifugation conditions: 5000 rpm, 10 minutes, 4° C.). The collected plasma was stored at −80° C. before analysis. […] The homogenate was stored at −80° C. before analysis. Drug concentrations in plasma and brain tissues were analyzed by LC/MS/MS for comparison.

[7] abbreviates: unit printed only in Cariprazine cell, read-out: Gαi1 BRET EC50.
[8] abbreviates: unit printed only in Cariprazine cell, read-out: β-arrestin2 BRET EC50.
[9] abbreviates: intravenous injection, dose 10 mg/kg.

Like-named read-outs stand apart in the source and are kept apart here.

Data on eight molecules can be found in US20250109139A1, “TRICYCLIC COMPOUND, AND PREPARATION METHOD THEREFOR AND USE THEREOF” (SHANGHAITECH UNIVERSITY, priority 2022, published 2025).

5-hydroxytryptamine 1A (5-HT1A) receptors, sequence (P08908 whole entry): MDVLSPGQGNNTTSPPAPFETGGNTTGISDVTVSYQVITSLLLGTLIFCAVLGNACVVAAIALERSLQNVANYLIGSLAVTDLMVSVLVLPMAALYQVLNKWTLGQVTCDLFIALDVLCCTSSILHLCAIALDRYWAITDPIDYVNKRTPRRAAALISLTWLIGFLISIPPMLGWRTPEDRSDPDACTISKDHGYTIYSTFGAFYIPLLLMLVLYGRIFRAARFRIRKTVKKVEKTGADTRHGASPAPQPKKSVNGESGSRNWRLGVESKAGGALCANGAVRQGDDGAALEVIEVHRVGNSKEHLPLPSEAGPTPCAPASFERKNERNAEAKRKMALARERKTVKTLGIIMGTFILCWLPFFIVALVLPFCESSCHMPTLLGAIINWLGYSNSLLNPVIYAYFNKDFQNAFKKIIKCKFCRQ
T1 sequence (P14416 whole entry): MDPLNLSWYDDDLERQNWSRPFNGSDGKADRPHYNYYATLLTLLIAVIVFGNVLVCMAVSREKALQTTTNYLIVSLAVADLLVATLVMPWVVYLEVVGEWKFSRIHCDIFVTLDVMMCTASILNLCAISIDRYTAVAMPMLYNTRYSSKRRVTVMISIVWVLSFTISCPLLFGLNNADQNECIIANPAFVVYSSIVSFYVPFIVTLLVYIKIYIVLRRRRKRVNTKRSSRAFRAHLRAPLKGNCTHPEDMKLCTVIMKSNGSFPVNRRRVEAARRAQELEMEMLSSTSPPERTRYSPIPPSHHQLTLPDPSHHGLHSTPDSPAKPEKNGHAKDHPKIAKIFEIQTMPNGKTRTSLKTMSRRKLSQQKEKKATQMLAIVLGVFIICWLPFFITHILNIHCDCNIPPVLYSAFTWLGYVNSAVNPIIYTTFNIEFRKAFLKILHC

`CC(C)Oc1cccc2c3c(oc12)CN(CCCCOc1ccc2ccc(=O)[nH]c2c1)CC3` [I-A18, 7-(4-(8-isopropoxy-3,4-dihydrobenzofuro[2,3-c]pyridin-2(1H)-yl)butoxy)quinolin-2(1H)-one]: the Emax (as a rule, the size of the effect at its maximum, as opposed to the concentration needed) in series [1] worked out at 81.9%. The “Affinity pKi ± SEM” value in series [2] is listed as “(7.05 ± 0.09)”.

With `CCOc1cccc2c3c(oc12)CN(CCCCc1ccc2ccc(=O)[nH]c2c1)CC3` [I-A25], the EC50 in series [3] (read-out: Gαi1 BRET pEC50 ± SEM (converted)) was 0.00204 µM; in series [3] (setting [7]) it was 0.00132 µM; in series [4] (setting [8]), 0.0546 µM. In addition, the Emax in series [3] is 40%; in series [1] it was 78%; in series [4], 78%.

Consider `CCOc1cccc2c3c(oc12)CN(CCCOc1ccc2c(c1)OCO2)CC3` [I-A31, 2-(3-(benzo[d][1,3]dioxol-5-yloxy)propyl)-8-ethoxy-1,2,3,4-tetrahydrobenzofuro[2,3-c]pyridine], for which, in series [1], the Emax stood at 104%.

Turning to `CCOc1cccc2c3c(oc12)CN(CCN1CCc2cc(C)ncc2C1=O)CC3` [I-A38, 2-(2-(8-ethoxy-3,4-dihydrobenzofuro[2,3-c]pyridin-2(1H)-yl)ethyl)-6-methyl-3,4-trihydro-2,7-naphthyridin-1(2H)-one], the “Gαi1 BRET Emax %” value in series [1] worked out at 116.2%.

In the case of `CCOc1cccc2c3c(oc12)CN(CCCn1ncc(=O)n(C)c1=O)CC3` [I-A44, 2-(3-(8-ethoxy-3,4-dihydrobenzofuro[2,3-c]pyridin-2(1H)-yl)propyl)-4-methyl-1,2,4-triazine-3,5(2H,4H)-dione], the maximum response (Emax) is 75.9% in series [1] and 21% in series [4]. Moreover, in series [4] (setting [8]), the EC50 came to 0.206 µM.

With `CCOc1cccc2c3c(oc12)CN(CCCCN1C(=O)CC2(CCCC2)CC1=O)CC3` [I-A46, 8-(4-(8-ethoxy-3,4-dihydrobenzofuro[2,3-c]pyridin-2(1H)-yl)butyl)-8-azaspiro[4.5]decane-7,9-dione], the Emax in series [1] amounted to 98.5%; in series [4] it was 31%. In addition, the EC50 in series [4] (setting [8]) was determined as 0.213 µM.

On to `CCOc1cccc2c3c([nH]c12)CN(CCC1CC(NC(=O)N(C)C)C1)CC3` (stereo not shown) [I-B11, 3-(3-(2-(8-ethoxy-1,3,4,9-tetrahydro-2H-pyrido[3,4-b]indol-2-yl)ethyl)cyclobutyl)-1,1-dimethylurea], for which the Emax in series [1] is 22.3%.

In the case of `COc1cccc2c1cc1n2CCN(CC[C@H]2CC[C@H](NC(=O)N(C)C)CC2)C1` [I-C7, 3-(trans-4-(2-(9-methoxy-3,4-dihydropyrazino[1,2-a]indol-2(1H)-yl)ethyl)cyclohexyl)-1,1-dimethylurea], the Vd in series [5] (intravenous injection, dose 10 mg/kg, read-out: Apparent volume of distribution Vdss) was determined as 4.75 ± 0.4 L/kg. The AUC(0-t) in series [5] (setting [9]) worked out at 2.52 ± 0.446 µg·h/mL; in series [5] (oral administration, 10 mg/kg), 10.4 ± 1.18 µg·h/mL. In series [5] (intravenous injection, dose 10 mg/kg, read-out: Clearance CL), the clearance (in general, the rate of elimination divided by the concentration) turned out to be 1.21 ± 0.216 L/h/kg. Further, the half-life is 3.67 ± 0.1 h in series [5] (setting [9]) and 8.54 ± 2.3 h in series [5] (oral administration, 10 mg/kg). The MRT (commonly the average time that molecules of a dose stay in the body) in series [5] (setting [9]) came out at 3.98 ± 0.4 h; in series [5] (oral administration, 10 mg/kg), 11.5 ± 4.1 h. Moreover, the Cmax is 0.765 ± 0.074 µg/mL in series [5] (setting [9]) and 1 ± 0.195 µg/mL in series [5] (oral administration, 10 mg/kg). In addition, the bioavailability in series [5] (oral administration, 10 mg/kg, read-out: Bioavailability F) was determined as 123 ± 14%. For the same molecule, in series [5] (oral administration, 10 mg/kg, read-out: Time to peak concentration tmax), the Tmax is 2 h. For the same molecule, the values for the maximal effect (Emax) in series [3] and in series [4] were 97% and 151%, respectively. Also, the values for the EC50 in series [3] (setting [7]), in series [4] (read-out: β-arrestin2 BRET pEC50 ± SEM (converted)) and in series [4] (setting [8]) were 0.123 µM, 0.195 µM and 0.291 µM, respectively. The AUC brain in series [6] (brain) was found to be 2.767 µg·h/mL. For the same molecule, in series [6] (male, C57, mouse, brain/plasma, ip, 0.5 h, read-out: 0.5 h ratio (brain/plasma)), the Kp at 0.5 h is 3.05. The Kp at 2 h in series [6] (male, C57, mouse, brain/plasma, ip, 2.0 h, read-out: 2.0 h ratio (brain/plasma)) amounted to 2.67. The Kp at 4 h in series [6] (male, C57, mouse, brain/plasma, ip, 4.0 h, read-out: 4.0 h ratio (brain/plasma)) turned out to be 2.24. Moreover, the Kp in series [6] (male, C57, mouse, brain/plasma, ip, read-out: AUC ratio (brain/plasma)) amounted to 2.71. For the same molecule, the concentration at 0.5 h in series [6] (male, C57, mouse, 0.5 h, brain, read-out: 0.5 h brain concentration) stood at 1.03 ± 0.096 µg/mL; in series [6] (male, C57, mouse, 0.5 h, plasma, read-out: 0.5 h plasma concentration), 0.336 ± 0.028 µg/mL. In addition, the concentration at 2 h in series [6] (male, C57, mouse, 2.0 h, brain, read-out: 2.0 h brain concentration) came out at 0.714 ± 0.143 µg/mL; in series [6] (male, C57, mouse, 2.0 h, plasma, read-out: 2.0 h plasma concentration), 0.267 ± 0.047 µg/mL. The concentration at 4 h in series [6] (male, C57, mouse, 4.0 h, brain, read-out: 4.0 h brain concentration) amounted to 0.491 ± 0.08 µg/mL; in series [6] (male, C57, mouse, 4.0 h, plasma, read-out: 4.0 h plasma concentration), 0.219 ± 0.015 µg/mL. Further, the AUC (commonly concentration integrated over time) in series [6] (male, C57, mouse, ip, plasma) was 1.02 µg·h/mL.
